Reference: patent publication US8383094B2, “Hepatitis C virus inhibitors” (Bristol-Myers Squibb Company, priority 2008, dated 2013)
Like-named read-outs stand apart in the source and are kept apart here.

System: HCV 1b genotype
Test: HCV Replicon assay (HCV-neo replicon cells, wild-type)
Type: cell-based
Conditions: HCV 1b genotype replicon, read-out: 1b EC50 (in μM or range)
[1] = Hepatitis C virus, range class A-D

Compound | EC50 [1] [nM] | other results
O=C(Nc1ccc(C#Cc2ccc(NC(=O)[C@@H]3CCCN3C(=O)C(c3ccccc3)N3CCC(O)CC3)cc2)cc1)[C@@H]1CCCN1C(=O)C(c1ccccc1)N1CCC(O)CC1 (stereo partly drawn) [VN21, (2S,2′S)-N,N′-(1,2-ethynediyldi-4,1-phenylene)bis(1-((4-hydroxy-1-piperidinyl)(phenyl)acetyl)-2-pyrrolidinecarboxamide)] |  | EC50 (Hepatitis C virus): 0.035 nM
O=C(Nc1ccc(C#Cc2ccc(NC(=O)[C@@H]3CCCN3C(=O)[C@@H](O)c3ccccc3)cc2)cc1)[C@@H]1CCCN1C(=O)[C@@H](O)c1ccccc1 [Example D41, (2S,2′S)-N,N′-(1,2-ethynediyldi-4,1-phenylene)bis(1-((2S)-2-hydroxy-2-phenylacetyl)-2-pyrrolidinecarboxamide)] | < 4.57 | 
COc1cccc2c(C(=O)N3CCC[C@H]3C(=O)Nc3ccc(C#Cc4ccc(NC(=O)[C@@H]5CCCN5C(=O)CC5CC5)cc4)cc3)nc(Cl)cc12 [Example D47, (2S)-1-((3-Chloro-5-methoxy-1-isoquinolinyl)carbonyl)-N-(4-((4-((((2S)-1-(cyclopropylacetyl)-2-pyrrolidinyl)carbonyl)amino)phenyl)ethynyl)phenyl)-2-pyrrolidinecarboxamide] | 4.57 to 99 | 
N#Cc1cc2ccccc2c(C(=O)N2CCC[C@H]2C(=O)Nc2ccc(C#Cc3ccc(NC(=O)[C@@H]4CCCN4C(=O)c4nc(C#N)cc5ccccc45)cc3)cc2)n1 [Example D32, (2S,2′S)-N,N′-(1,2-ethynediyldi-4,1-phenylene)bis(1-((3-cyano-1-isoquinolinyl)carbonyl)-2-pyrrolidinecarboxamide)] | 4.57 to 99 | 
CC(=O)N1CCC[C@H]1C(=O)Nc1ccc(C#Cc2ccc(NC(=O)[C@@H]3C[C@@H](OC(C)(C)C)CN3C(=O)OCc3ccccc3)cc2)cc1 [Example D7, Benzyl (2S,4R)-2-((4-((4-((((2S)-1-acetyl-2-pyrrolidinyl)carbonyl)amino)phenyl)ethynyl)phenyl)carbamoyl)-4-tert-butoxy-1-pyrrolidinecarboxylate] | 1000 to 10000 | 
CS(=O)(=O)N[C@@H](C(=O)N1CCC[C@H]1C(=O)Nc1ccc(C#Cc2ccc(NC(=O)[C@@H]3CCCN3C(=O)[C@H](NS(C)(=O)=O)c3ccccc3)cc2)cc1)c1ccccc1 [VN27, (2S,2′S)-N,N′-(1,2-ethynediyldi-4,1-phenylene)bis(1-((2R)-2-((methylsulfonyl)amino)-2-phenylacetyl)-2-pyrrolidinecarboxamide)] | < 4.57 | 
O=C(Nc1ccc(C#Cc2ccc(NC(=O)[C@@H]3CCCN3C(=O)c3nccn3Cc3ccccc3)cc2)cc1)[C@@H]1CCCN1C(=O)c1nccn1Cc1ccccc1 [Example D29, (2S,2′S)-N,N′-(1,2-ethynediyldi-4,1-phenylene)bis(1-((1-benzyl-1H-imidazol-2-yl)carbonyl)-2-pyrrolidinecarboxamide)] | 100 to 999 | 
CC(C)(C)O[C@@H]1C[C@@H](C(=O)Nc2ccc(C#Cc3ccc(NC(=O)[C@@H]4C[C@@H](OC(C)(C)C)CN4C(=O)OCc4ccccc4)cc3)cc2)N(C(=O)OCc2ccccc2)C1 [Example D8, Dibenzyl (2S,4R,2′S,4′R)-2,2′-(1,2-ethynediylbis(4,1-phenylenecarbamoyl))bis(4-tert-butoxy-1-pyrrolidinecarboxylate)] | 1000 to 10000 | 
C[C@@H](C(=O)N1CCC[C@H]1C(=O)Nc1ccc(C#Cc2ccc(NC(=O)[C@@H]3CCCN3C(=O)[C@H](C)c3ccccc3)nc2)cn1)c1ccccc1 [Example D50, (2S,2′S)-N,N′-(1,2-ethynediyldi-5,2-pyridinediyl)bis(1-((2R)-2-phenylpropanoyl)-2-pyrrolidinecarboxamide)] | < 4.57 | 
O=C(Nc1cccc(C#Cc2cccc(NC(=O)[C@@H]3CCCN3C(=O)OCc3ccccc3)n2)n1)[C@@H]1CCCN1C(=O)OCc1ccccc1 [YQ1, dibenzyl (2S,2′S)-2,2′-(1,2-ethynediylbis(6,2-pyridinediylcarbamoyl))di(1-pyrrolidinecarboxylate)] |  | EC50 (Hepatitis C virus): 7 nM
CC(=O)N1CCN(C(C(=O)N2CCC[C@H]2C(=O)Nc2ccc(C#Cc3ccc(NC(=O)[C@@H]4CCCN4C(=O)C(c4ccccc4)N4CCN(C(C)=O)CC4)cc3)cc2)c2ccccc2)CC1 (stereo partly drawn) [VN48, (2S,2′S)-N,N′-(1,2-ethynediyldi-4,1-phenylene)bis(1-((4-acetyl-1-piperazinyl)(phenyl)acetyl)-2-pyrrolidinecarboxamide)] | < 4.57 | 
O=C(Nc1ccc(C#Cc2ccc(NC(=O)[C@@H]3CCCN3C(=O)C(F)c3ccccc3)cc2)cc1)[C@@H]1CCCN1C(=O)C(F)c1ccccc1 (stereo partly drawn) [VN8, (2S,2′S)-N,N′-(1,2-ethynediyldi-4,1-phenylene)bis(1-(fluoro(phenyl)acetyl)-2-pyrrolidinecarboxamide)] | < 4.57 | 
O=C(Nc1ccc(C#Cc2ccc(NC(=O)[C@@H]3CCCN3C(=O)c3nccc4ccccc34)cc2)cc1)[C@@H]1CCCN1C(=O)c1nccc2ccccc12 [Example D28, (2S,2′S)-N,N′-(1,2-ethynediyldi-4,1-phenylene)bis(1-(1-isoquinolinylcarbonyl)-2-pyrrolidinecarboxamide)] | 100 to 999 | 
O=C(Nc1ccc(C#Cc2ccc(NC(=O)[C@@H]3CCCN3C(=O)c3nc(Cl)cc4ccccc34)cc2)cc1)[C@@H]1CCCN1C(=O)c1nc(Cl)cc2ccccc12 [Example D31, (2S,2′S)-N,N′-(1,2-ethynediyldi-4,1-phenylene)bis(1-((3-chloro-1-isoquinolinyl)carbonyl)-2-pyrrolidinecarboxamide)] | 4.57 to 99 | 
CC(=O)N1CCC[C@H]1C(=O)Nc1ccc(C#Cc2ccc(NC(=O)[C@@H]3CCCN3C(=O)c3nccc4ccccc34)nc2)cc1 [Example D56, (2S)-1-Acetyl-N-(4-((6-((((2S)-1-(1-isoquinolinylcarbonyl)-2-pyrrolidinyl)carbonyl)amino)-3-pyridinyl)ethynyl)phenyl)-2-pyrrolidinecarboxamide] |  | EC50 (Hepatitis C virus): 2090 nM
O=C(Nc1ccc(C#Cc2ccc(NC(=O)[C@@H]3CCCN3C(=O)[C@H](O)c3ccccc3)cc2)cc1)[C@@H]1CCCN1C(=O)c1nc(Cl)cc2ccccc12 [Example D44, (2S)-1-((3-Chloro-1-isoquinolinyl)carbonyl)-N-(4-((4-((((2S)-1-((2R)-2-hydroxy-2-phenylacetyl)-2-pyrrolidinyl)carbonyl)amino)phenyl)ethynyl)phenyl)-2-pyrrolidinecarboxamide] | < 4.57 | 
CN1C[C@@H]2C[C@H]1CN2C(C(=O)N1CCC[C@H]1C(=O)Nc1ccc(C#Cc2ccc(NC(=O)[C@@H]3CCCN3C(=O)C(c3ccccc3)N3C[C@@H]4C[C@H]3CN4C)cc2)cc1)c1ccccc1 (stereo partly drawn) [VN19, (2S,2′S)-N,N′-(1,2-ethynediyldi-4,1-phenylene)bis(1-(((1S,4S)-5-methyl-2,5-diazabicyclo[2.2.1]hept-2-yl)(phenyl)acetyl)-2-pyrrolidinecarboxamide)] |  | EC50: 5.2 nM
O=C(Nc1ccc(C#Cc2ccc(NC(=O)[C@@H]3CCCN3C(=O)C(c3ccccc3)N3CC[C@H](O)C3)cc2)cc1)[C@@H]1CCCN1C(=O)C(c1ccccc1)N1CC[C@H](O)C1 (stereo partly drawn) [VN50, (2S,2′S)-N,N′-(1,2-ethynediyldi-4,1-phenylene)bis(1-(((3S)-3-hydroxy-1-pyrrolidinyl)(phenyl)acetyl)-2-pyrrolidinecarboxamide)] |  | EC50 (Hepatitis C virus): 0.5 nM
O=C(Nc1ccc(C#Cc2ccc(NC(=O)[C@@H]3CCCN3C(=O)C(c3ccccc3)N3CC[C@@H](O)C3)cc2)cc1)[C@@H]1CCCN1C(=O)C(c1ccccc1)N1CC[C@@H](O)C1 (stereo partly drawn) [VN52, (2S,2′S)-N,N′-(1,2-ethynediyldi-4,1-phenylene)bis(1-(((3R)-3-hydroxy-1-pyrrolidinyl)(phenyl)acetyl)-2-pyrrolidinecarboxamide)] | < 4.57 | 
O=C1CN(C(C(=O)N2CCC[C@H]2C(=O)Nc2ccc(C#Cc3ccc(NC(=O)[C@@H]4CCCN4C(=O)C(c4ccccc4)N4CCNC(=O)C4)cc3)cc2)c2ccccc2)CCN1 (single isomer, unassigned) [VN33] |  | EC50 (range class A-D): < 4.57 nM
CN(C)[C@@H](C(=O)N1CCC[C@H]1C(=O)Nc1ccc(C#Cc2ccc(NC(=O)[C@@H]3CCCN3C(=O)[C@@H](c3ccc(F)cc3)N(C)C)cc2)cc1)c1ccc(F)cc1 [Example D36, (2S,2′S)-N,N′-(1,2-ethynediyldi-4,1-phenylene)bis(1-((2R)-2-(dimethylamino)-2-(4-fluorophenyl)acetyl)-2-pyrrolidinecarboxamide)] | < 4.57 | 
C[C@](O)(C(=O)N1CCC[C@H]1C(=O)Nc1ccc(C#Cc2ccc(NC(=O)[C@@H]3CCCN3C(=O)[C@](C)(O)c3ccccc3)cc2)cc1)c1ccccc1 [VN2, (2S,2′S)-N,N′-(1,2-ethynediyldi-4,1-phenylene)bis(1-((2R)-2-hydroxy-2-phenylpropanoyl)-2-pyrrolidinecarboxamide)] | < 4.57 | 
O=C(Nc1ccc(C#Cc2ccc(NC(=O)[C@@H]3CCCN3C(=O)C(c3ccccc3)N3CCC(O)CC3)cc2)cc1)[C@@H]1CCCN1C(=O)C(c1ccccc1)N1CCC(O)CC1 (stereo partly drawn) [VN20, (2S,2′S)-N,N′-(1,2-ethynediyldi-4,1-phenylene)bis(1-((4-hydroxy-1-piperidinyl)(phenyl)acetyl)-2-pyrrolidinecarboxamide)] | 4.57 to 99 | 
CN(CC(N)=O)C(C(=O)N1CCC[C@H]1C(=O)Nc1ccc(C#Cc2ccc(NC(=O)[C@@H]3CCCN3C(=O)C(c3ccccc3)N(C)CC(N)=O)cc2)cc1)c1ccccc1 (stereo partly drawn) [VN45, (2S,2′S)-N,N′-(1,2-ethynediyldi-4,1-phenylene)bis(1-(((2-amino-2-oxoethyl)(methyl)amino)(phenyl)acetyl)-2-pyrrolidinecarboxamide)] | 4.57 to 99 | 
CCC(O)(C(=O)N1CCC[C@H]1C(=O)Nc1ccc(C#Cc2ccc(NC(=O)[C@@H]3CCCN3C(=O)C(O)(CC)c3ccccc3)cc2)cc1)c1ccccc1 (stereo partly drawn) [VN10, (2S,2′S)-N,N′-(1,2-ethynediyldi-4,1-phenylene)bis(1-(2-hydroxy-2-phenylbutanoyl)-2-pyrrolidinecarboxamide)] | < 4.57 | 
O=C(Nc1ccc(C#Cc2ccc(NC(=O)[C@@H]3CCCN3C(=O)/C=C/c3ccccc3)nc2)cn1)[C@@H]1CCCN1C(=O)/C=C/c1ccccc1 [Example D49, (2S,2′S)-N,N′-(1,2-ethynediyldi-5,2-pyridinediyl)bis(1-((2E)-3-phenyl-2-propenoyl)-2-pyrrolidinecarboxamide)] | 100 to 999 | 
